In patent publication US20050239656A1, “Pyridine compounds or salts thereof and herbicides containing the same” (priority 2002, published 2005):

Columns and labels:
[1] = test system: barnyardgrass; assay: Test Example 2: soil surface treatment, upland pot test; format: in vivo, Echinochloa crus-galli L.; details: active ingredient 500 g/ha
From the text: (§1) Upland field soil was put into a 1/170,000 ha pot, and seed of various plants (barnyardgrass, crabgrass, green foxtail, redroot pigweed, prickly sida, velvetleaf, rice, wheat, corn, soybean) were sown. On the 1st day after the sowing, a wettable powder or emulsifiable concentrate having the compound of the present invention formulated in accordance with a usual formulation method, was weighed so that the active ingredient would be a predetermined amount, and diluted with water in an amount of 1,500 L/ha. The herbicide thus adjusted was applied by a small size sprayer for soil surface treatment. On the 20th to 28th days after the application of the herbicide, the growth of the respective plants was visually observed, and the herbicidal effects were evaluated by the growth controlling degrees (%) ranging from 0 (equivalent to the non-treated plot) to 100 (complete kill), whereby the results shown in Table 4, were obtained.

[2] = test system: green foxtail; assay: as above; format: in vivo, Setaria viridis L.; details: active ingredient 500 g/ha
From the text: as §1

[3] = test system: redroot pigweed; assay: as above; format: in vivo, Amaranthus retroflexus L.; details: active ingredient 500 g/ha
From the text: as §1

[4] = test system: prickly sida; assay: as above; format: in vivo, Sida spinosa L.; details: active ingredient 500 g/ha
From the text: as §1

[5] = test system: velvetleaf; assay: as above; format: in vivo, Abutilon theophrasti MEDIC.; details: active ingredient 500 g/ha
From the text: as §1

[6] = test system: rice; assay: as above; format: in vivo, Oryza sativa L.; details: active ingredient 500 g/ha
From the text: as §1

[7] = test system: corn; assay: as above; format: in vivo, Zea mays L.; details: active ingredient 500 g/ha
From the text: as §1

[8] = test system: soybean; assay: as above; format: in vivo, Glycine max Merr.; details: active ingredient 500 g/ha
From the text: as §1

[9] = test system: barnyardgrass; assay: Test Example 3: paddy pot test, application under submerged conditions; format: in vivo, Echinochloa crus-galli L.; details: submerged application at 0.5 leaf stage, visually observed 14 days after application, 0 = non-treated, 100 = complete kill
From the text: (§2) Paddy field soil was put into a 1/1,000,000 ha pot, and seed of barnyardgrass and japanese bulrush were sown and slightly covered with soil. Then, the pot was left to stand still in a greenhouse in a state where the depth of flooding water was from 0.5 to 1 cm, and one day or two days later, tubers of japanese ribbon wapato were planted. Thereafter, the depth of flooding water was maintained at a level of from 3 to 4 cm, and when barnyardgrass and japanese bulrush reached a 0.5 leaf stage and japanese ribbon wapato reached a primary leaf stage, an aqueous diluted solution of a wettable powder or emulsifiable concentrate having the compound of the present invention formulated in accordance with a usual formulation method, was uniformly applied under submerged conditions by a pipette so that the dose of the active ingredient would be at a predetermined level. On the 14 days after the application of the herbicide, the growth of barnyard grass, japanese burlrush and japanese ribbon wapato was visually observed and on the 21st day after the application of the herbicide, the growth of rice was visually observed, and the herbicidal effects were evaluated by the growth-controlling degrees (%) ranging from 0 (equivalent to the non-treated plot) to 100 (complete kill), whereby the results shown in Table 5 were obtained.

[10] = test system: japanese bulrush; assay: as above; format: in vivo, Scirpus juncoides; details: submerged application at 0.5 leaf stage, visually observed 14 days after application, 0 = non-treated, 100 = complete kill
From the text: as §2

[11] = test system: japanese ribbon wapato; assay: as above; format: in vivo, Sagittaria pygniaea; details: submerged application at primary leaf stage, visually observed 14 days after application, 0 = non-treated, 100 = complete kill
From the text: as §2

[12] = test system: rice (var. Nihonbare); assay: Test Example 3: paddy pot test, transplanted rice; format: in vivo, Oryza sativa L.; details: applied 4th day after transplantation, visually observed 21st day after application, 0 = non-treated, 100 = complete kill
From the text: as §2, with “On the other hand, paddy field soil was put into a 1/1,000,000 ha pot and puddled and leveled, and the depth of flooding water was from 3 to 4 cm. Next day, rice (var. Nihonbare) of 2 leaf stage was transplanted in a depth of 3 cm. On the 4th day after the transplantation, the compound of the present invention was applied in the same manner as described above. On the 14 days” for “On the 14 days”

[13] = test system: crabgrass; assay: Test Example 2: soil surface treatment, upland pot test; format: in vivo, Digitaria sanguinalis L.; details: active ingredient 500 g/ha
From the text: as §1

[14] = observed day 21, 0 = non-treated, 100 = complete kill

Row | Structure (SMILES) | Growth controlling degree (%) Barnyardgrass ([1]; observed 20th to 28th day) [%] | Growth controlling degree (%) Green foxtail ([2]; observed 20th to 28th day) [%] | Growth controlling degree (%) Redroot pigweed ([3]; observed 20th to 28th day) [%] | Growth controlling degree (%) Prickly sida ([4]; observed 20th to 28th day) [%] | Growth controlling degree (%) Velvetleaf ([5]; observed 20th to 28th day) [%] | Growth controlling degree (%) Rice ([6]; observed 20th to 28th day) [%] | Growth controlling degree (%) Corn ([7]; observed 20th to 28th day) [%] | Growth controlling degree (%) Soyabean ([8]; observed 20th to 28th day) [%] | Growth controlling degree (%) Barnyardgrass ([9]; active ingredient 250 g/ha) [%] | Growth controlling degree (%) Japanese bulrush ([10]; active ingredient 250 g/ha) [%] | Growth controlling degree (%) Japanese ribbon wapato ([11]; active ingredient 250 g/ha) [%] | Growth controlling degree (%) Rice ([12]; active ingredient 250 g/ha) [%] | Growth controlling degree (%) Crabgrass ([13]; observed 20th to 28th day) [%] | also measured
1 | CCN(C(=O)Cc1ccc(C)cc1)C(c1cnccc1C(F)(F)F)C(C)C (stereo not drawn) [I-101] | 70 | 70 | 80 | 30 | 30 | 0 | 10 | 0 | 100 | 98 | 40 | 10 | – | –
2 | CC(C)C(c1cnccc1C(F)(F)F)N(C)C(=O)Cc1ccc(C(F)(F)F)cc1F (stereo not drawn) [Compound I-105] | 70 | 100 | 60 | 80 | 10 | 10 | 30 | 10 | 100 | 80 | – | 20 | 98 | –
3 | CNC(=S)N(C)C(c1cnccc1C(F)(F)F)C(C)C (racemic) [Compound I-112] | 20 | 50 | 70 | 40 | 10 | 40 | 10 | 10 | – | – | – | – | 70 | –
4 | CC(C)C(c1cnccc1C(F)(F)F)N(C)C(=O)COc1cccc(C(F)(F)F)c1 (stereo not drawn) [I-254] | – | – | – | – | – | – | – | – | 100 | 98 | – | 0 | – | Growth controlling degree (%) Barnyardgrass [1, 14]: 90%; Growth controlling degree (%) Crabgrass [13, 14]: 98%; Growth controlling degree (%) Green foxtail [2, 14]: 100%; Growth controlling degree (%) Redroot pigweed [3, 14]: 50%; Growth controlling degree (%) Prickly sida [4, 14]: 90%; Growth controlling degree (%) Velvetleaf [5, 14]: 70%; Growth controlling degree (%) Rice [6, 14]: 10%; Growth controlling degree (%) Corn [7, 14]: 10%; Growth controlling degree (%) Soyabean [8, 14]: 10%
5 | CC(C)C(c1cnccc1C(F)(F)F)N(C)C(=O)Nc1ccccc1 (stereo not drawn) [Compound I-230] | 50 | 70 | 60 | 30 | 0 | 10 | 40 | 0 | – | – | – | – | 98 | –
6 | Cc1ccc(C=CC(=O)N(C)C(c2cnccc2C(F)(F)F)C(C)C)cc1 (stereo not drawn) [I-181] | 30 | 95 | 40 | – | 30 | 40 | 10 | 0 | – | – | – | – | 98 | Growth controlling degree (%) Barnyardgrass ([9]; active ingredient 500 g/ha): 95%; Growth controlling degree (%) Japanese bulrush ([10]; active ingredient 500 g/ha): 98%; Growth controlling degree (%) Japanese ribbon wapato ([11]; active ingredient 500 g/ha): 60%; Growth controlling degree (%) Rice ([12]; active ingredient 500 g/ha): 10%
7 | Cc1cccc(OCC(=O)N(C)C(c2cnccc2C(F)(F)F)C(C)C)c1 (stereo not drawn) [I-238] | – | – | – | – | – | – | – | – | 95 | 95 | 60 | 20 | – | –
8 | CC(C)C(c1cnccc1C(F)(F)F)N(C)C(=O)CCl (stereo not drawn) [I-168] | 100 | 98 | 100 | 70 | 0 | 98 | 10 | 20 | – | – | – | – | 98 | –
9 | CC(C)C(c1cnccc1C(F)(F)F)N(C)C(=O)COc1ccc([N+](=O)[O-])cc1 (stereo not drawn) [I-237] | – | – | – | – | – | – | – | – | 95 | 95 | 40 | 0 | – | –
10 | CC(C)C(c1cnccc1C(F)(F)F)N(C)C(=O)C=Cc1ccc2ccccc2c1 (stereo not drawn) [I-188] | – | – | – | – | – | – | – | – | – | – | – | – | – | Growth controlling degree (%) Barnyardgrass ([9]; active ingredient 500 g/ha): 100%; Growth controlling degree (%) Japanese bulrush ([10]; active ingredient 500 g/ha): 0%; Growth controlling degree (%) Japanese ribbon wapato ([11]; active ingredient 500 g/ha): 0%; Growth controlling degree (%) Rice ([12]; active ingredient 500 g/ha): 0%
11 | CC(C)C(c1cnccc1C(F)(F)F)N(C)C(=O)C1CCCC1 (stereo not drawn) [I-212] | – | – | – | – | – | – | – | – | 100 | 98 | 80 | 30 | – | –
12 | CC(C)C(c1cnccc1C(F)(F)F)N(C)C(=O)COc1ccccc1Cl (stereo not drawn) [I-235] | – | – | – | – | – | – | – | – | 100 | 90 | 60 | 0 | – | –
13 | CCN(C(=O)Cc1cc(F)ccc1F)C(c1cnccc1C(F)(F)F)C(C)C (stereo not drawn) [I-98] | – | – | – | – | – | – | – | – | 100 | 80 | 40 | 10 | – | –
14 | Cc1ccccc1OCC(=O)N(C)C(c1cnccc1C(F)(F)F)C(C)C (stereo not drawn) [I-240] | – | – | – | – | – | – | – | – | 100 | 100 | 50 | 0 | – | –
15 | CC(C)C(c1cnccc1C(F)(F)F)N(C)C(=O)COc1cc([N+](=O)[O-])c(Cl)cc1Cl (stereo not drawn) [I-253] | – | – | – | – | – | – | – | – | 90 | 20 | 0 | 10 | – | –
16 | CC(C)C(c1cnccc1C(F)(F)F)N(C)C(=O)C=COc1ccccc1 (stereo not drawn) [I-166, N-methyl-N-[2-methyl-1-(4-trifluoromethylpyridin-3-yl)propyl]3-phenoxypropenamide] | – | – | – | – | – | – | – | – | 100 | 95 | 0 | 0 | – | –
